Experimental findings from ChEMBL document CHEMBL5523705, “High affinity and low PARP-trapping benzimidazole derivatives as a potential warhead for PARP1 degraders” (Eur J Med Chem, 2024) are described below.

One data set relates to MDA-MB-436. Kind of data set: Inhibition of cell proliferation in human MDA-MB-436 cells assessed as PARP trapping effect. In kind it is functional, cell-based.
A further data set concerns MCF7. Kind of data set: Inhibition of cell proliferation in human MCF7 cells. The class given is functional, cell-based.
Data set [1] deals with Poly [ADP-ribose] polymerase 1 (Homo sapiens, UniProt P09874). Kind of data set: Inhibition of PARP1 (unknown origin) in presence of DNA and substrate by chemiluminescent assay.
A short description of data set [2]: Inhibition of cell proliferation in HUVECs. The class given is toxicity, cell-based. To be noted: human, HUVEC cells.

Sequence of Poly [ADP-ribose] polymerase 1 (P09874 whole entry): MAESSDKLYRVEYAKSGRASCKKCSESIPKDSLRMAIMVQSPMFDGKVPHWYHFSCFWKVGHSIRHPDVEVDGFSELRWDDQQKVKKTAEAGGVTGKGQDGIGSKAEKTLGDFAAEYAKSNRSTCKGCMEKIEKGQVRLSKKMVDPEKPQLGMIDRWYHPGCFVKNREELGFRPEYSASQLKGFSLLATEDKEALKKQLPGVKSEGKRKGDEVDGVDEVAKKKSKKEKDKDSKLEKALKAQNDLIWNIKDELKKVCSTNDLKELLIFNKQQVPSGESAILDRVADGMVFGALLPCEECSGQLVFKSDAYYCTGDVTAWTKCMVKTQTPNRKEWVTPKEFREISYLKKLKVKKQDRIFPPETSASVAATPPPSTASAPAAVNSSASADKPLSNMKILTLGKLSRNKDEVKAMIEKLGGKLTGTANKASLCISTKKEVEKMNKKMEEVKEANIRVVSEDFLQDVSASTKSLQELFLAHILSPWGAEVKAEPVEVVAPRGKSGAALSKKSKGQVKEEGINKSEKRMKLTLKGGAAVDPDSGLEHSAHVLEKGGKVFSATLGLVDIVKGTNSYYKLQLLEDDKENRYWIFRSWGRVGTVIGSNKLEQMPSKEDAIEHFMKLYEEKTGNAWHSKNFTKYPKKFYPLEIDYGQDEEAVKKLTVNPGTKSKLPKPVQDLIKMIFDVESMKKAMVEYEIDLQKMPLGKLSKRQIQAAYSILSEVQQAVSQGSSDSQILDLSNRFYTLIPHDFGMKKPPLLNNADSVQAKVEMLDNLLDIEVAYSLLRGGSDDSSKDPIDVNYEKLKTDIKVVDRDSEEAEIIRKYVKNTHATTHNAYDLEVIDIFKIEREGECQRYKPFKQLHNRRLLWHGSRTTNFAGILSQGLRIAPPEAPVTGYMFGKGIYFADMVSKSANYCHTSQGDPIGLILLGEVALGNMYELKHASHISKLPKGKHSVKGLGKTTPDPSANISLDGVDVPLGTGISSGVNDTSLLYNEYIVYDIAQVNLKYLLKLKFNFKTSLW

In the case of `NC(=O)c1cccc2[nH]c(-c3ccc(C(=O)N4CCN(C(=O)c5ccco5)CC4)cc3)nc12`, the IC50 with MDA-MB-436 (Homo sapiens, MDA-MB-436) was > 100 µM; in the data set with MCF7 (Homo sapiens, MCF7), > 100 µM; in data set [1], 0.0541 µM; in data set [2], > 100 µM.

Take `NC(=O)c1cccc2[nH]c(-c3ccc(C(=O)N4CCN(C(=O)c5csc(Br)n5)CC4)cc3)nc12`: the IC50 in the data set on MDA-MB-436 (Homo sapiens, MDA-MB-436) was > 100 µM; with MCF7 (Homo sapiens, MCF7), > 100 µM; in data set [1], 0.00462 µM; in data set [2], > 100 µM.

Regarding `NC(=O)c1cccc2[nH]c(-c3ccc(C(=O)NC4CCN(c5ccc(Br)o5)C4)c(F)c3)nc12` (stereo unspecified), the IC50 in the data set with MDA-MB-436 (Homo sapiens, MDA-MB-436) is 16.4 µM; in the data set on MCF7 (Homo sapiens, MCF7), > 100 µM; in data set [2] it was > 100 µM.

For the compound `Cn1cncc1C(=O)N1CCN(C(=O)c2ccc(-c3nc4c(C(N)=O)cccc4[nH]3)cc2)CC1`, the IC50 is > 100 µM in the data set on MDA-MB-436 (Homo sapiens, MDA-MB-436); > 100 µM in the data set with MCF7 (Homo sapiens, MCF7); 0.0846 µM in data set [1]; > 100 µM in data set [2].

With `CC1CN(C(=O)c2ccc(-c3nc4c(C(N)=O)cccc4[nH]3)cc2F)CCN1C(=O)c1ccc(Cl)o1` (stereo unspecified), the IC50 in the data set with MDA-MB-436 (Homo sapiens, MDA-MB-436) was 21.8 µM; with MCF7 (Homo sapiens, MCF7), > 100 µM; in data set [1], 0.00685 µM; in data set [2], 47.8 µM.

With `Cn1cccc1C(=O)N1CCN(C(=O)c2ccc(-c3nc4c(C(N)=O)cccc4[nH]3)cc2)CC1`, the IC50 is > 100 µM with MDA-MB-436 (Homo sapiens, MDA-MB-436); > 100 µM in the data set on MCF7 (Homo sapiens, MCF7); 0.0456 µM in data set [1]; > 100 µM in data set [2].

Take `NC(=O)c1cccc2[nH]c(-c3ccc(C(=O)NC4CCN(c5ccco5)C4)c(F)c3)nc12` (stereo unspecified): the IC50 in the data set on MDA-MB-436 (Homo sapiens, MDA-MB-436) is 20.5 µM; with MCF7 (Homo sapiens, MCF7), > 100 µM; in data set [1], 0.009 µM; in data set [2], 67.1 µM.

As to `CC1CN(C(=O)c2ccc(-c3nc4c(C(N)=O)cccc4[nH]3)cc2F)CCN1C(=O)c1ccc(Br)o1` (stereo unspecified), the concentration for half-maximal inhibition (IC50) in the data set on MDA-MB-436 (Homo sapiens, MDA-MB-436) was 14.9 µM; in the data set with MCF7 (Homo sapiens, MCF7) it was > 100 µM; in data set [2], 52.6 µM.

On to `Cc1ccoc1C(=O)N1CCN(C(=O)c2ccc(-c3nc4c(C(N)=O)cccc4[nH]3)cc2F)CC1C` (stereo unspecified), for which the concentration for half-maximal inhibition (IC50) in the data set with MDA-MB-436 (Homo sapiens, MDA-MB-436) was 9.09 µM; with MCF7 (Homo sapiens, MCF7) it was > 100 µM; in data set [1], 0.00518 µM; in data set [2], 85.3 µM.

With `Cc1ccc(C(=O)N2CCN(C(=O)c3ccc(-c4nc5c(C(N)=O)cccc5[nH]4)cc3F)CC2C)o1` (stereo unspecified), the half-maximal inhibitory concentration (IC50) in the data set with MDA-MB-436 (Homo sapiens, MDA-MB-436) was 17.3 µM; in the data set with MCF7 (Homo sapiens, MCF7), > 100 µM; in data set [1], 0.00572 µM; in data set [2], > 100 µM.

With `NC(=O)c1cccc2[nH]c(-c3ccc(C(=O)N4CCN(C(=O)c5ccccn5)CC4)cc3)nc12`, the IC50 in the data set on MDA-MB-436 (Homo sapiens, MDA-MB-436) was > 100 µM; with MCF7 (Homo sapiens, MCF7), > 100 µM; in data set [1] it was 0.0506 µM; in data set [2], > 100 µM.

For the compound `NC(=O)c1cccc2[nH]c(-c3ccc(C(=O)NC4CCN(c5ccc(Cl)o5)C4)c(F)c3)nc12` (stereo unspecified), the IC50 in the data set on MDA-MB-436 (Homo sapiens, MDA-MB-436) is 7.6 µM; in the data set with MCF7 (Homo sapiens, MCF7), > 100 µM; in data set [1], 0.00438 µM; in data set [2], > 100 µM.

In the case of `NC(=O)c1cccc2[nH]c(-c3ccc(C(=O)N4CCN(C(=O)c5ccco5)CC4)c(F)c3)nc12`, the IC50 is > 100 µM with MDA-MB-436 (Homo sapiens, MDA-MB-436); > 100 µM in the data set with MCF7 (Homo sapiens, MCF7); 0.0324 µM in data set [1]; > 100 µM in data set [2].

As for `O=C(c1cc(Cc2n[nH]c(=O)c3ccccc23)ccc1F)N1CCN(C(=O)C2CC2)CC1` [OLAPARIB], the IC50 in the data set with MDA-MB-436 (Homo sapiens, MDA-MB-436) is 23.9 µM; in the data set on MCF7 (Homo sapiens, MCF7), > 100 µM; in data set [2], > 100 µM.

Regarding `C[C@]1(c2nc3c(C(N)=O)cccc3[nH]2)CCCN1` [VELIPARIB], the IC50 (in the data set with MDA-MB-436 (mda-mb-436); in the data set on MCF7 (mcf7); in data set [2]) was > 100 µM in each case.

Usually IC50 stands for the concentration that gives 50% inhibition.
